This is an account of results in patent US20250295649A1, “METHOD FOR PROMOTING ELONGATION OF LONG BONE DURING CHILDHOOD TO ADOLESCENCE BY GPER-1 ACTIVATION VARIANT” (Kaohsiung Medical University, priority 2024, published 2025).

SMILES strings stand for the structures.

Test [1] relates to mice. Put plainly: Growth plate cartilage structure in mice, Safranin O staining. The following applies: subcutaneous injection from 2 weeks old. The class given is in vivo. As for the experimental part: From 2 weeks old, mice are administered GPER-1 agonists at concentrations of 10^−8 g/kg, 10^−6 g/kg, and 10^−4 g/kg through subcutaneous injection to activate GPER-1. Safranin O staining is employed to label cartilage tissue for the analysis of growth plate cartilage structure. The growth plate cartilage is categorized into the resting zone (RZ), proliferation zone (PZ), and hypertrophy zone (HZ).

In test [2] the test system is epiphyseal chondrocytes. Put plainly: BrdU proliferation in ex vivo cultured epiphyseal cartilage of 4-day-old rats. Format: cell-based. The following applies: for proliferation of epiphyseal chondrocytes (BrdU): ex vivo rat epiphyseal cartilage. As for the experimental part:
After taking out the cultured epiphyseal cartilage from 4-day-old rats and culturing them ex vivo, the cartilage tissues are given GPER-1 agonists at concentrations of 0.1, 0.5, 1, and 2 μM to activate the GPER-1 of chondrocytes. Subsequently, the amount of proliferating cells in living cells is detected using Bromodeoxyuridine (5-bromo-2′-deoxyuridine, BrdU).

In the case of `CC(=O)c1ccc2c(c1)[C@H]1C=CC[C@H]1[C@@H](c1cc3c(cc1Br)OCO3)N2` (racemic) [GPER-1 agonist, (±)-1-[(3aR*,4S*,9bS*)-4-(6-Bromo-1,3-benzodioxol-5-yl)-3a,4,5,9b-tetrahydro-3H-cyclopenta[c]quinolin-8-yl]-ethenone], the “thickness of the proliferative zone of the growth plate” value in test [1] (10^−4 g/kg) and in test [1] (10^−6 g/kg) was “effectively promote” in each case. For the same compound, the “thickness of the whole growth plate” value in test [1] (10^−4 g/kg) and in test [1] (10^−6 g/kg) was “effectively promote” in each case. In test [2] (concentrations ranging from 0.1 to 1 μM (summary statement)), the “proliferation of rat chondrocytes” value is “can promote”. The “proliferation of epiphyseal chondrocytes (BrdU)” value in test [2] (0.1 μM) and in test [2] (0.5 μM) was “significantly promote” in each case.
